Source: PubChem BioAssay (NCI)
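96-well plates; 48 h exposure; 5 concentrations. Endpoints by linear interpolation between flanking doses. Not reached: highest tested concentration assigned. TGI: total growth inhibition.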

Legend:
Test in all cases: NCI anticancer screen, dose series, 48 h
UACC-257 melanoma = system: UACC-257 melanoma
SK-MEL-2 melanoma = system: SK-MEL-2 melanoma
U251 CNS = system: U251 CNS
IGROV1 ovarian = system: IGROV1 ovarian
786-0 renal = system: 786-0 renal
SNB-19 CNS = system: SNB-19 CNS
TK-10 renal = system: TK-10 renal
OVCAR-4 ovarian = system: OVCAR-4 ovarian
NCI-H522 lung = system: NCI-H522 lung
SK-OV-3 ovarian = system: SK-OV-3 ovarian
LOX IMVI melanoma = system: LOX IMVI melanoma
COLO 205 colon = system: COLO 205 colon
A498 renal = system: A498 renal
CCRF-CEM leukemia = system: CCRF-CEM leukemia
T-47D breast = system: T-47D breast
EKVX NSCLC = system: EKVX NSCLC
SF-295 CNS = system: SF-295 CNS
MOLT-4 leukemia = system: MOLT-4 leukemia
NCI-H460 lung = system: NCI-H460 lung
OVCAR-3 ovarian = system: OVCAR-3 ovarian

Work on `N#CC1=C(N)OC(c2ccc([N+](=O)[O-])cc2)C1(C#N)C#N` (stereo not given) yielded a TGI (UACC-257 melanoma) of 26.5 µM, a TGI (SK-MEL-2 melanoma) of 23 µM and a TGI (U251 CNS) greater than 78.2 µM. For the same compound, the TGI (IGROV1 ovarian) was 31.1 µM, the TGI (786-0 renal) was 25 µM and the TGI (SNB-19 CNS) was greater than 53.2 µM. For the same compound, the TGI (TK-10 renal) was 26.7 µM, the TGI (OVCAR-4 ovarian) was 33.7 µM and the TGI (NCI-H522 lung) was 17.8 µM. It also gave a TGI (SK-OV-3 ovarian) greater than 100 µM, a TGI (LOX IMVI melanoma) of 21.6 µM and a TGI (COLO 205 colon) of 16.6 µM. For the same compound, the TGI (A498 renal) was 27.8 µM, the TGI (CCRF-CEM leukemia) was 43.3 µM and the TGI (T-47D breast) was 43.2 µM. The TGI (EKVX NSCLC) was 39.6 µM, the TGI (SF-295 CNS) was greater than 71.3 µM and the TGI (MOLT-4 leukemia) was 63.3 µM.
For `CN(C)c1nc(NN)c2c(-c3ccccc3)c(-c3ccccc3)oc2n1`, the TGI (UACC-257 melanoma) was greater than 100 µM, the TGI (U251 CNS) was greater than 100 µM and the TGI (IGROV1 ovarian) was greater than 100 µM. The TGI (786-0 renal) was greater than 100 µM, the TGI (SNB-19 CNS) was greater than 100 µM and the TGI (TK-10 renal) was greater than 100 µM. It also gave a TGI (OVCAR-4 ovarian) greater than 100 µM, a TGI (NCI-H522 lung) greater than 100 µM and a TGI (SK-OV-3 ovarian) greater than 100 µM. For the same compound, the TGI (LOX IMVI melanoma) was greater than 100 µM, the TGI (COLO 205 colon) was greater than 100 µM and the TGI (A498 renal) was greater than 100 µM. It also gave a TGI (CCRF-CEM leukemia) greater than 100 µM, a TGI (T-47D breast) greater than 100 µM and a TGI (EKVX NSCLC) greater than 100 µM. The TGI (SF-295 CNS) was greater than 100 µM and the TGI (MOLT-4 leukemia) was greater than 100 µM.
With `CC(NC(=O)OC(C)(C)C)C(=O)C(N)=O` (stereo not given) the TGI (SK-MEL-2 melanoma) was greater than 100 µM, the TGI (U251 CNS) was greater than 100 µM and the TGI (786-0 renal) was greater than 100 µM. The TGI (SNB-19 CNS) was greater than 100 µM, the TGI (TK-10 renal) was greater than 100 µM and the TGI (SK-OV-3 ovarian) was greater than 100 µM. The TGI (LOX IMVI melanoma) was greater than 100 µM, the TGI (COLO 205 colon) was greater than 100 µM and the TGI (A498 renal) was greater than 100 µM. It also gave a TGI (CCRF-CEM leukemia) greater than 100 µM, a TGI (T-47D breast) greater than 100 µM and a TGI (EKVX NSCLC) greater than 100 µM. The TGI (MOLT-4 leukemia) was greater than 100 µM and the TGI (NCI-H460 lung) was greater than 100 µM.
`CC(=O)Oc1cc2c(cc1OC(C)=O)[C@H]1CC[C@]3(C)[C@@H](OC(C)=O)CC[C@H]3[C@@H]1CC2` showed a TGI (UACC-257 melanoma) of 22.4 µM, a TGI (SK-MEL-2 melanoma) of 16.1 µM and a TGI (U251 CNS) of 17.6 µM. The TGI (OVCAR-3 ovarian) was 7.88 µM, the TGI (IGROV1 ovarian) was 19.1 µM and the TGI (786-0 renal) was 18.9 µM. The TGI (SNB-19 CNS) was 21.7 µM, the TGI (TK-10 renal) was 20.8 µM and the TGI (OVCAR-4 ovarian) was 19.7 µM. The TGI (NCI-H522 lung) was 3.85 µM, the TGI (SK-OV-3 ovarian) was 21.7 µM and the TGI (LOX IMVI melanoma) was 16.6 µM. It also gave a TGI (COLO 205 colon) of 15.5 µM, a TGI (A498 renal) of 25.6 µM and a TGI (T-47D breast) of 22.2 µM. For the same compound, the TGI (EKVX NSCLC) was 9.64 µM, the TGI (SF-295 CNS) was 24.3 µM and the TGI (NCI-H460 lung) was 20.6 µM.
For `O=[N+]([O-])c1cc(Cl)cc2cc(Cl)cnc12`, the TGI (UACC-257 melanoma) was greater than 100 µM, the TGI (U251 CNS) was greater than 100 µM and the TGI (OVCAR-3 ovarian) was greater than 100 µM. It also gave a TGI (IGROV1 ovarian) of 66.8 µM, a TGI (786-0 renal) greater than 100 µM and a TGI (SNB-19 CNS) greater than 100 µM. It also gave a TGI (TK-10 renal) greater than 100 µM, a TGI (OVCAR-4 ovarian) greater than 100 µM and a TGI (NCI-H522 lung) greater than 100 µM. The TGI (LOX IMVI melanoma) was greater than 100 µM, the TGI (COLO 205 colon) was greater than 100 µM and the TGI (A498 renal) was greater than 100 µM. For the same compound, the TGI (CCRF-CEM leukemia) was greater than 100 µM, the TGI (T-47D breast) was 97.2 µM and the TGI (EKVX NSCLC) was greater than 100 µM. For the same compound, the TGI (SF-295 CNS) was greater than 100 µM, the TGI (MOLT-4 leukemia) was greater than 100 µM and the TGI (NCI-H460 lung) was greater than 100 µM.
In the case of `O=C(/C=C/c1ccco1)CC(=O)/C=C/c1ccco1`, the TGI (UACC-257 melanoma) was greater than 100 µM, the TGI (SK-MEL-2 melanoma) was 22.2 µM and the TGI (U251 CNS) was 19.7 µM. For the same compound, the TGI (IGROV1 ovarian) was greater than 31.6 µM, the TGI (786-0 renal) was 19.2 µM and the TGI (SNB-19 CNS) was 31.4 µM. The TGI (TK-10 renal) was 61.2 µM, the TGI (OVCAR-4 ovarian) was greater than 31.6 µM and the TGI (NCI-H522 lung) was 14.1 µM. For the same compound, the TGI (LOX IMVI melanoma) was 13.8 µM, the TGI (A498 renal) was 36.7 µM and the TGI (CCRF-CEM leukemia) was 16.3 µM. For the same compound, the TGI (T-47D breast) was greater than 31.6 µM, the TGI (EKVX NSCLC) was greater than 31.6 µM and the TGI (MOLT-4 leukemia) was 23 µM. For the same compound, the TGI (NCI-H460 lung) was 22.2 µM.
`COc1ccc(/C=C/C(=O)N[C@@H]2C(=O)N3[C@@H]2SC(C)(C)[C@@H]3C(=O)O)cc1` was tested, and the TGI (UACC-257 melanoma) was greater than 100 µM, the TGI (SK-MEL-2 melanoma) was greater than 100 µM and the TGI (U251 CNS) was greater than 100 µM. The TGI (OVCAR-3 ovarian) was greater than 100 µM, the TGI (786-0 renal) was greater than 100 µM and the TGI (SNB-19 CNS) was greater than 100 µM. It also gave a TGI (TK-10 renal) greater than 100 µM, a TGI (OVCAR-4 ovarian) greater than 100 µM and a TGI (NCI-H522 lung) greater than 100 µM. It also gave a TGI (SK-OV-3 ovarian) greater than 100 µM, a TGI (LOX IMVI melanoma) greater than 100 µM and a TGI (COLO 205 colon) greater than 100 µM. It also gave a TGI (A498 renal) greater than 100 µM, a TGI (CCRF-CEM leukemia) greater than 100 µM and a TGI (T-47D breast) greater than 100 µM. For the same compound, the TGI (EKVX NSCLC) was greater than 100 µM, the TGI (SF-295 CNS) was greater than 100 µM and the TGI (MOLT-4 leukemia) was greater than 100 µM. The TGI (NCI-H460 lung) was greater than 100 µM.
